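Briefly, cells in 96-well plates were exposed to five compound concentrations for 48 h, and endpoints were estimated by linear interpolation. The concentration for full growth arrest is given as TGI.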
Columns and labels:
Experiment in all cases: NCI-60 cell line screen, 48 h
[1] = test system: OVCAR-5 ovarian
[2] = test system: SK-MEL-2 melanoma
[3] = test system: COLO 205 colon
[4] = test system: DLD-1 colon
[5] = test system: HCT-116 colon
[6] = test system: SNB-78 CNS
[7] = test system: SF-268 CNS
[8] = test system: SK-MEL-5 melanoma
[9] = test system: IGROV1 ovarian
[10] = test system: TK-10 renal
[11] = test system: NCI-H522 lung
[12] = test system: SF-539 CNS
[13] = test system: A498 renal
[14] = test system: HCT-15 colon
[15] = test system: DMS 114 small cell lung
[16] = test system: 786-0 renal
[17] = test system: HOP-92 NSCLC
[18] = test system: SK-MEL-28 melanoma
[19] = test system: U251 CNS
[20] = test system: KM20L2 colon
[21] = test system: MALME-3M melanoma
[22] = test system: LXFL 529 NSCLC
[23] = test system: M14 melanoma
[24] = test system: UACC-257 melanoma
[25] = test system: M19-MEL melanoma
[26] = test system: A549 NSCLC
[27] = test system: RXF 393 renal
[28] = test system: DMS 273 small cell lung
[29] = test system: UO-31 renal
[30] = test system: HOP-62 NSCLC
[31] = test system: SR leukemia
[32] = test system: SK-OV-3 ovarian
[33] = test system: K-562 leukemia
[34] = test system: LOX IMVI melanoma
[35] = test system: NCI-H23 lung
[36] = test system: NCI-H460 lung
[37] = test system: HCC-2998 colon
[38] = test system: RXF-631 renal
[39] = test system: KM12 colon
[40] = test system: RPMI-8226 leukemia
[41] = test system: UACC-62 melanoma
[42] = test system: SW-620 colon
[43] = test system: SN12C renal
[44] = test system: SF-295 CNS
[45] = test system: OVCAR-8 ovarian
[46] = test system: ACHN renal
[47] = test system: OVCAR-3 ovarian
[48] = test system: HL-60(TB) leukemia
[49] = test system: SNB-19 CNS
[50] = test system: SNB-75 CNS
[51] = test system: HOP-18 NSCLC
[52] = test system: HT29 colon
[53] = test system: EKVX NSCLC
[54] = test system: OVCAR-4 ovarian
[55] = test system: NCI-H226 lung
[56] = test system: CAKI-1 renal
[57] = test system: MOLT-4 leukemia
[58] = test system: CCRF-CEM leukemia

SMILES: CSc1nc(NC2OC(COC(C)=O)C(OC(C)=O)C(OC(C)=O)C2OC(C)=O)c(N=CC=Nc2c(NC3OC(COC(C)=O)C(OC(C)=O)C(OC(C)=O)C3OC(C)=O)nc(SC)[nH]c2=O)c(=O)[nH]1 (stereo unspecified)
- TGI [1]: > 100 µM
- TGI [2]: > 100 µM
- TGI [3]: > 100 µM
- TGI [4]: > 100 µM
- TGI [5]: > 100 µM
- TGI [6]: > 100 µM
- TGI [7]: > 100 µM
- TGI [8]: > 100 µM
- TGI [9]: > 100 µM
- TGI [10]: > 100 µM
- TGI [11]: > 100 µM
- TGI [12]: > 100 µM
- TGI [13]: > 100 µM
- TGI [14]: > 100 µM
- TGI [15]: > 100 µM
- TGI [16]: > 100 µM
- TGI [17]: > 100 µM
- TGI [18]: > 100 µM
- TGI [19]: > 100 µM
- TGI [20]: > 100 µM
- TGI [21]: > 100 µM
- TGI [22]: > 100 µM
- TGI [23]: > 100 µM
- TGI [24]: > 100 µM
- TGI [25]: > 100 µM
- TGI [26]: > 100 µM
- TGI [27]: > 100 µM
- TGI [28]: > 100 µM
- TGI [29]: > 100 µM
- TGI [30]: > 100 µM
- TGI [31]: > 100 µM
- TGI [32]: > 100 µM
- TGI [33]: > 100 µM
- TGI [34]: > 100 µM
- TGI [35]: > 100 µM
- TGI [36]: > 100 µM
- TGI [37]: > 100 µM
- TGI [38]: > 100 µM
- TGI [39]: > 100 µM
- TGI [40]: > 100 µM
- TGI [41]: > 100 µM
- TGI [42]: > 100 µM
- TGI [43]: > 100 µM
- TGI [44]: > 100 µM
- TGI [45]: > 100 µM
- TGI [46]: > 100 µM
- TGI [47]: > 100 µM
- TGI [48]: > 100 µM
- TGI [49]: > 100 µM
- TGI [50]: > 100 µM
- TGI [51]: > 100 µM
- TGI [52]: > 100 µM
- TGI [53]: > 100 µM
- TGI [54]: > 100 µM

SMILES: CCOC(OC1=C(C#N)CCC1)C(C)[Se]c1ccccc1 (stereo unspecified)
- TGI [1]: > 100 µM
- TGI [2]: > 100 µM
- TGI [3]: > 100 µM
- TGI [4]: 87.6 µM
- TGI [5]: 42.4 µM
- TGI [55]: 51.7 µM
- TGI [6]: > 100 µM
- TGI [7]: 46.6 µM
- TGI [8]: 34 µM
- TGI [9]: 68.8 µM
- TGI [10]: > 100 µM
- TGI [11]: 26.7 µM
- TGI [56]: > 100 µM
- TGI [12]: 41 µM
- TGI [13]: > 100 µM
- TGI [14]: 35.2 µM
- TGI [15]: 14.2 µM
- TGI [16]: 27.8 µM
- TGI [17]: 49.3 µM
- TGI [18]: 96.9 µM
- TGI [19]: 21.5 µM
- TGI [57]: 43.7 µM
- TGI [20]: > 100 µM
- TGI [21]: 51.9 µM
- TGI [22]: 46 µM
- TGI [23]: 33.4 µM
- TGI [24]: > 100 µM
- TGI [25]: 30.9 µM
- TGI [58]: > 100 µM
- TGI [26]: > 100 µM
- TGI [27]: 34.7 µM
- TGI [28]: 29.7 µM
- TGI [29]: 67.4 µM
- TGI [30]: > 100 µM
- TGI [31]: 34.8 µM
- TGI [32]: > 100 µM
- TGI [33]: > 100 µM
- TGI [34]: 22.9 µM
- TGI [35]: 26.6 µM
- TGI [36]: > 100 µM
- TGI [37]: > 100 µM
- TGI [38]: 26.3 µM
- TGI [39]: > 100 µM
- TGI [40]: 53.1 µM
- TGI [41]: 43.9 µM
- TGI [43]: 35.8 µM
- TGI [44]: 71.6 µM
- TGI [45]: 35.9 µM
- TGI [46]: 96.2 µM
- TGI [47]: 42.5 µM
- TGI [48]: 73.8 µM
- TGI [49]: > 100 µM
- TGI [50]: 77.9 µM
- TGI [51]: 55.3 µM
- TGI [52]: > 100 µM
- TGI [53]: 82.6 µM
- TGI [54]: 30.5 µM

SMILES: CCOc1ccc(NC(=O)/C(=C\c2ccc(C)cc2)C(C)=O)cc1
- TGI [1]: > 100 µM
- TGI [2]: > 100 µM
- TGI [3]: > 100 µM
- TGI [4]: > 100 µM
- TGI [5]: > 100 µM
- TGI [55]: > 100 µM
- TGI [6]: > 100 µM
- TGI [7]: > 100 µM
- TGI [8]: > 100 µM
- TGI [9]: > 100 µM
- TGI [10]: > 100 µM
- TGI [11]: > 100 µM
- TGI [56]: > 100 µM
- TGI [12]: > 100 µM
- TGI [13]: > 100 µM
- TGI [14]: > 100 µM
- TGI [15]: > 100 µM
- TGI [16]: > 100 µM
- TGI [17]: > 100 µM
- TGI [18]: > 100 µM
- TGI [19]: > 100 µM
- TGI [57]: > 100 µM
- TGI [20]: > 100 µM
- TGI [21]: > 100 µM
- TGI [22]: > 100 µM
- TGI [23]: > 100 µM
- TGI [24]: > 100 µM
- TGI [25]: > 100 µM
- TGI [58]: > 100 µM
- TGI [26]: > 100 µM
- TGI [28]: > 100 µM
- TGI [29]: > 100 µM
- TGI [30]: > 100 µM
- TGI [31]: > 100 µM
- TGI [32]: > 100 µM
- TGI [33]: > 100 µM
- TGI [34]: > 100 µM
- TGI [35]: > 100 µM
- TGI [37]: > 100 µM
- TGI [38]: > 100 µM
- TGI [40]: > 100 µM
- TGI [41]: > 100 µM
- TGI [42]: > 100 µM
- TGI [43]: > 100 µM
- TGI [44]: > 100 µM
- TGI [45]: > 100 µM
- TGI [46]: > 100 µM
- TGI [47]: > 100 µM
- TGI [48]: > 100 µM
- TGI [49]: > 100 µM
- TGI [50]: > 100 µM
- TGI [51]: > 100 µM
- TGI [52]: > 100 µM
- TGI [53]: > 100 µM
- TGI [54]: > 100 µM

SMILES: Cn1cnc([N+](=O)[O-])c1Sc1nc2ccccc2s1
- TGI [1]: 27.9 µM
- TGI [3]: 14.5 µM
- TGI [4]: 18.1 µM
- TGI [5]: 18.7 µM
- TGI [55]: 22.1 µM
- TGI [6]: 33 µM
- TGI [7]: 20.7 µM
- TGI [8]: 27.1 µM
- TGI [9]: 25.2 µM
- TGI [56]: 6.9 µM
- TGI [12]: 25.1 µM
- TGI [14]: 14.6 µM
- TGI [15]: 14.9 µM
- TGI [16]: 24.7 µM
- TGI [17]: 14.3 µM
- TGI [18]: 21.1 µM
- TGI [19]: 24.4 µM
- TGI [57]: 4.91 µM
- TGI [20]: 23.5 µM
- TGI [21]: 13.2 µM
- TGI [22]: 24.7 µM
- TGI [23]: 29 µM
- TGI [25]: 24.3 µM
- TGI [26]: 22.8 µM
- TGI [27]: 8.22 µM
- TGI [28]: 2.71 µM
- TGI [29]: 21.5 µM
- TGI [30]: 86.1 µM
- TGI [31]: 13.2 µM
- TGI [32]: 29.5 µM
- TGI [34]: 31 µM
- TGI [35]: 23.9 µM
- TGI [36]: 24.3 µM
- TGI [37]: 22 µM
- TGI [38]: 16.9 µM
- TGI [39]: 29.3 µM
- TGI [40]: 43.1 µM
- TGI [41]: 25.7 µM
- TGI [42]: 15.1 µM
- TGI [43]: 17.6 µM
- TGI [44]: 44.6 µM
- TGI [45]: 17.6 µM
- TGI [46]: 28.8 µM
- TGI [47]: 14.5 µM
- TGI [49]: 29.4 µM
- TGI [50]: 29.3 µM
- TGI [51]: 0.902 µM
- TGI [52]: 28.5 µM
- TGI [53]: 17.8 µM
- TGI [54]: 13.1 µM
